These results are taken from paper PMC9886892, “Imidazolium salts as an alternative for anti-Leishmania drugs: Oxidative and immunomodulatory activities” (Frontiers in Immunology, 2023).

Read-outs that look alike come from different tables or passages of the source.

For series [1], the system named is L. amazonensis promastigotes. Briefly: Mitochondrial membrane potential (rhodamine 123, flow cytometry). To be noted: IS 2-fold IC50, 6 h; amphotericin B 0.4 µM; hydrogen peroxide 2 mM. The format is cell-based, Leishmania (L.) amazonensis. An excerpt: A total of 30,000 events were acquired in the region that corresponded to the parasites. Histograms were build using the CellQuest Pro software (Joseph Trotter, Scripps Research Institute, La Jolla, CA, USA).
(In general: In flow cytometry, cells or beads pass a laser one at a time.)

Series [2] concerns L. infantum chagasi promastigotes. As to the kind of experiment: microbe, parasite or virus in culture. To be noted: Leishmania infantum, 48 h, read-out: IC50 (CI 95%): concentration of compound that causes 50% of L. infantum chagasi promastigotes mortality.
Protocol: (§1) Subsequently, 0.5 mg/mL of 3-(4,5-dimethylthiazol-2-yl)-2,5-diphenyltetrazolium bromide (MTT, Sigma-Aldrich®, St. Louis, MO, USA) was added and the incubations continued for an additional 4 h at 26 °C. The purple formazan product that was formed by the action of mitochondrial enzymes in living cells was solubilized by the addition of acidic isopropanol, and the absorbance at 570 nm was measured using a microplate reader spectrophotometer EZ Read 400 from Biochrom. […] The 50% inhibitory concentration (IC50) value for each compound was determined. The survival rate was calculated according to the formula: OD in treated group/OD of untreated group x 100. The 50% inhibitory concentration (IC50) value for each compound was determined by nonlinear regression analysis using GraphPad Prism 5.03 software.
Series [3] concerns L. amazonensis promastigotes. The following applies: 100 µM screening concentration, 48 h.
Protocol: as §1
Series [4] deals with L. amazonensis promastigotes. Briefly: microbe, parasite or virus in culture. To be noted: Leishmania amazonensis, 48 h.
Protocol: as §1
In series [5] the test system is L. amazonensis amastigotes in RAW 264.7 macrophages. As to the kind of experiment: Intramacrophage anti-amastigote activity. To be noted: Leishmania amazonensis, RAW264.7, 48 h, read-out: IC50 (CI 95%): concentration of compound that causes 50% of L. amazonensis amastigotes mortality. It is filed as cell-based, Leishmania (L.) amazonensis. How it is done:
The anti-amastigote assay was performed as previously described ([13]). Macrophages RAW 264.7 cell line (ATCC) were cultured in DMEM plus 10% fetal bovine serum (FBS), penicillin (100 U/mL) and streptomycin (100 µg/mL) until reaching 90% confluence, when were distributed into 96-well microplates at a concentration of 2 x 10^5 cells/well in the presence of DMEM. […] The leishmanicidal activity of macrophages was assessed by determining the number of viable parasites (4 replicates) using a hemocytometer.

Series [6] has as its system Macrophages RAW 264.7 cell line.
A short description of the next series: in vitro. To be noted: mouse.
Series [7] concerns L. amazonensis promastigotes. As to the kind of experiment: Cell membrane integrity (propidium iodide, flow cytometry). It is filed as cell-based, Leishmania (L.) amazonensis. To be noted: 1.8 µM (IC50), 48 h.
Protocol: After 48 h at 26°C, the parasites were harvested and washed twice with PBS, resuspended and incubated with 100 μL of propidium iodide (PI – Sigma–Aldrich) 50 μg/mL at 26°C for 15 min. Following, each sample was completed with 400 μL of PBS and a total of 20,000 events were acquired and analyzed on BD FACScalibur flow cytometer and CellQuest Pro software. PI fluorescence intensity was quantified as the percentage of the fluorescence compared with untreated promastigotes ([30]). Results were obtained from two independent experiments performed in triplicate.
Series [8] concerns human erythrocytes. The method, then:
Triton X-100 1% was used as positive control. The hemolytic assay was performed according to the procedure used by ([13]). […] The microplate was incubated at 37°C under agitation (90 rpm) for 60 min. Then, the suspension was centrifuged at 3,000 rpm for 5 min, and the absorbance of the supernatant was measured at 540 nm using a spectrophotometer EZ Read 400 from Biochrom. Triton X-100 1% and PBS were used as positive and negative control, respectively. […] The selectivity index (SI) (CC50 or RBC50/IC50 against L. amazonensis) were determined for each compound.

Series [9] relates to L. infantum chagasi promastigotes. The following applies: read-out: IC50 (CI 95%): concentration of compound that causes 50% of L. infantum chagasi promastigotes mortality, 48 h, MTT.
Protocol: as §1
Series [10] concerns L. amazonensis promastigotes. Details: method as in PMID 30077823. To be noted: read-out: IC50 for L. amazonensis promastigotes (previous study); cited from earlier work.
Series [11] relates to human erythrocytes. To be noted: cited from earlier work.
Series [12] concerns Macrophages RAW 264.7 cell line. To be noted: read-out: CC50 towards macrophages (previous study); cited from earlier work.

Usually mortality stands for the share of the test organisms that died. As usually defined, the viability is a read-out of living cells in per cent, often relative to untreated cells. Regarding `CCCCCCCCCCCCCCCCn1c(C)c(C)[n+](C)c1C.[Cl-]` [C16M4ImCl, 1-hexadecyl-2,3,4,5-tetramethylimidazolium chloride], the “mitochondrial membrane potential (ΔΨm) alteration” value in [1] is listed as “significant ΔΨm depolarization”. Also, the IC50 in [2] was 14.9 µM. Further, the “L. amazonensis mortality in the screening test” value in [3] is 100%. In addition, in series [4] (read-out: IC50 (CI 95%): concentration of compound that causes 50% of L. amazonensis promastigotes mortality), the IC50 is 1.8 µM. Also, the mortality at 5 µM in series [4] (read-out: mortality of L. amazonensis promastigotes) turned out to be 95%. For the same compound, the IC50 in series [5] turned out to be 0.2 µM. For the same compound, in series [6], the “SI: selectivity index, ratio of CC50 for macrophage/IC50 for L. amazonensis amastigotes” value was determined as 89 and the “SI: selectivity index, ratio of CC50 for macrophage/IC50 for L. amazonensis promastigotes” value amounted to 10. In “in vitro”, this compound returned a CC50 of 17.8 µM and a viability of 90%. In series [7], the “L. amazonensis integrity (panoptic stain)” value was “total lysis of the parasites”. For the same compound, in the series with human erythrocytes [8], the “SI: selectivity index, ratio of CC50 for RBC hemolysis/IC50 for L. amazonensis amastigotes” value is recorded as 78 and the “SI: selectivity index, ratio of CC50 for RBC hemolysis/IC50 for L. amazonensis promastigotes” value was 8.7. Moreover, in the series on human erythrocytes [8] (human red blood cells, 60 min, 37°C), the “RBC50 (CI 95%): concentration of compound that causes 50% of red blood cell hemolysis” value was 15.6 (14.5-16.8) µM.

For the compound `CCCCCCCCCCCCCCCCn1cc[n+](C)c1.CS(=O)(=O)[O-]` [C16MImMeS, 1-hexadecyl-3-methylimidazolium methanesulfonate], the IC50 in series [9] was 10.8 µM; in series [10] it was 0.75 µM. Also, in the series on human erythrocytes [11], the “RBC50 erythrocytes (previous study)” value is reported as 36.9 µM. For the same compound, in [12], the CC50 was 11.5 µM.
